Test [1] in a line: Inhibition of Escherichia coli NAD+-dependent DNA ligase.
Test [2] has as its system Escherichia coli. The experiment in a line: Antibacterial activity against efflux-deficient Escherichia coli 1260 expressing transducant lig251 gene encoding temperature sensitive ligA. Format: functional.
Test [3] deals with Escherichia coli. The experiment in a line: Antibacterial activity against TolC-positive Escherichia coli 1201 expressing lig251 gene. In kind it is functional.
Test [4] concerns Escherichia coli. The experiment in a line: Antibacterial activity against wild-type TolC-positive Escherichia coli 1410 expressing ligA gene. In kind it is functional.
In another test the test system is Staphylococcus aureus. The experiment in a line: Antibacterial activity against Staphylococcus aureus ATCC 29213. In kind it is functional.
The target of the next test is DNA ligase 1 (Homo sapiens, UniProt P18858). The experiment in a line: Inhibition of human ATP-dependent DNA ligase 1.
The next test has as its system Streptococcus pneumoniae. The test is described as follows: Antibacterial activity against Streptococcus pneumoniae ATCC 10015. Format: functional.
For the next test, the system named is Haemophilus influenzae. The experiment in a line: Antibacterial activity against Haemophilus influenzae ATCC 51907. In kind it is functional.

≈ marks a conversion by molar mass, not a printed value.

Sequence of DNA ligase 1 (P18858 whole entry): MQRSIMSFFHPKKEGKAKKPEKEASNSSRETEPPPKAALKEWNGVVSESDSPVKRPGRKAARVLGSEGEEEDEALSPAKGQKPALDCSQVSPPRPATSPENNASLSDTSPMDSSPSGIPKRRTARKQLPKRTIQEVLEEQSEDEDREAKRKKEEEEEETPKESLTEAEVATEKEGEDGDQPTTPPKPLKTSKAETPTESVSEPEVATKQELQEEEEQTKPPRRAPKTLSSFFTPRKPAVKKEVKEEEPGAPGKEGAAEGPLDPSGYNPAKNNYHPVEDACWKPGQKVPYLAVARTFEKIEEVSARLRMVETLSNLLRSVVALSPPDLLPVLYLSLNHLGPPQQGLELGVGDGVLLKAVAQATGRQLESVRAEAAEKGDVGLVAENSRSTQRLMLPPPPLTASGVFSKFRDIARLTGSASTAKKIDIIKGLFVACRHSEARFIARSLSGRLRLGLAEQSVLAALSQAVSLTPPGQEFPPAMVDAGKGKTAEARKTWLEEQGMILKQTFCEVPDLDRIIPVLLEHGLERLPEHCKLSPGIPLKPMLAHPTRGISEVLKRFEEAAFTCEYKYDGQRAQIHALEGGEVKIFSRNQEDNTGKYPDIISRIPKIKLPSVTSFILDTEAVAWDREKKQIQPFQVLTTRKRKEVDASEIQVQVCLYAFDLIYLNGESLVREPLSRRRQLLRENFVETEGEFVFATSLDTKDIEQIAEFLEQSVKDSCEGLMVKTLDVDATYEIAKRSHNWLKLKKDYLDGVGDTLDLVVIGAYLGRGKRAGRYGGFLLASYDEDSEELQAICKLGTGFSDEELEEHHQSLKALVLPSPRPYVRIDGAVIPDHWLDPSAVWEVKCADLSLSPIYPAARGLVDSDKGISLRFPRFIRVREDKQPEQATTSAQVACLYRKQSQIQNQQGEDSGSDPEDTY

For `COCCNc1nc(OCC2CCCC2)ncc1C(N)=O`, the IC50 (commonly the concentration at which inhibition is half-maximal) in test [1] is > 55000 nM. The MIC with Escherichia coli [2], in the test on Escherichia coli [3], against Escherichia coli [4] and against Staphylococcus aureus was > 100 µM in each case.

In test [1], `NC(=O)c1cnc(SC2CCCC2)nc1N` had an IC50 of 6900 nM. Besides, the MIC against Escherichia coli [2] was 33 µM (≈ 7.86 µg/mL); in the test with Escherichia coli [3], > 100 µM; in the test on Escherichia coli [4], > 100 µM; with Staphylococcus aureus, > 100 µM.

On to `Nc1nc(OC2CCCC2)ncc1S(N)(=O)=O`, for which the half-maximal inhibitory concentration (IC50) in test [1] is > 40000 nM. The MIC against Escherichia coli [2], in the test with Escherichia coli [3], in the test with Escherichia coli [4] and in the test with Staphylococcus aureus was > 100 µM throughout.

On to `COc1cc(NC[C@H]2CCCC(Oc3nc(OC4CCCC4)nc(N)c3C(N)=O)C2)cc(OC)c1` (stereo partly drawn), for which the IC50 in test [1] was 80 nM; on DNA ligase 1 it was > 55 µM. The MIC with Escherichia coli [2] was 1.6 µM (≈ 0.777 µg/mL); with Escherichia coli [3], > 100 µM; in the test with Escherichia coli [4] it was > 100 µM; in the test with Staphylococcus aureus, > 100 µM.

With `CC(Oc1ncc(C(N)=O)c(N)n1)C(=O)O` (stereo not drawn), the IC50 in test [1] was > 10000 nM; at DNA ligase 1, > 55 µM. For the same molecule, the MIC against Escherichia coli [2], against Escherichia coli [3], against Escherichia coli [4] and in the test with Staphylococcus aureus was > 100 µM throughout.

As for `NC(=O)c1c(N)nc(OC2CCCC2)nc1OC1CCCCC1F` (stereo not drawn), the results for the IC50 (in test [1]; against DNA ligase 1) were 19 nM and > 55 µM, respectively. Besides, the MIC with Escherichia coli [2] is 1.2 µM (≈ 0.406 µg/mL); against Escherichia coli [3] it was > 100 µM; against Escherichia coli [4], > 100 µM; against Staphylococcus aureus, > 100 µM.

On to `NC(=O)c1c(N)nc(OC2CCCC2)nc1Oc1ccccc1F`, for which the IC50 in test [1] was 64 nM; at DNA ligase 1 it was > 55 µM. Besides, the MIC in the test with Escherichia coli [2] is 9.4 µM (≈ 3.12 µg/mL); with Escherichia coli [3], > 100 µM; against Escherichia coli [4], > 100 µM; against Staphylococcus aureus it was > 100 µM.

As for `CNc1nc(OCC2CCCC2)ncc1C(N)=O`, the IC50 in test [1] was > 55000 nM. The MIC against Escherichia coli [2], in the test on Escherichia coli [3], against Escherichia coli [4] and against Staphylococcus aureus was > 100 µM in each case.

Consider `C[C@H]1CCCC[C@H]1Oc1ncc(C(N)=O)c(N)n1`, for which the IC50 in test [1] is 240 nM; on DNA ligase 1 it was > 55 µM. The MIC with Escherichia coli [2] is 3.1 µM (≈ 0.776 µg/mL); against Escherichia coli [3] it was > 100 µM; against Escherichia coli [4], > 100 µM; in the test with Staphylococcus aureus it was > 100 µM.

On to `C[C@H]1CC[C@H](Oc2nc(N)c(C(N)=O)c(O[C@H]3CCC[C@@H]3O)n2)CC1`, for which the IC50 in test [1] is 180 nM; against DNA ligase 1, > 55 µM. The MIC was 1.2 µM (≈ 0.421 µg/mL) against Escherichia coli [2]; > 100 µM in the test on Escherichia coli [3]; > 100 µM against Escherichia coli [4]; 100 µM (≈ 35 µg/mL) against Staphylococcus aureus; 75 µM (≈ 26.3 µg/mL) with Streptococcus pneumoniae; 12.5 µM (≈ 4.38 µg/mL) in the test with Haemophilus influenzae.

Regarding `NC(=O)c1cnc(OC2CCCCC2)nc1N`, the figures for the IC50 (in test [1]; at DNA ligase 1) were 560 nM and > 55 µM, respectively. Moreover, the MIC is 9.8 µM (≈ 2.32 µg/mL) against Escherichia coli [2], > 100 µM with Escherichia coli [3], > 100 µM with Escherichia coli [4] and > 100 µM in the test on Staphylococcus aureus.

Take `CC(C)Oc1nc(N)c(C(N)=O)c(O[C@H]2CCC[C@@H]2O)n1`: the IC50 is 630 nM in test [1] and > 55 µM at DNA ligase 1. Besides, the MIC in the test with Escherichia coli [2] was 4.7 µM (≈ 1.39 µg/mL); against Escherichia coli [3], > 100 µM; in the test with Escherichia coli [4], > 100 µM; in the test with Staphylococcus aureus, > 100 µM.

For `CC(C)Oc1ncc(C(N)=O)c(N)n1`, the IC50 in test [1] is 410 nM; against DNA ligase 1 it was > 55 µM. Also, the MIC against Escherichia coli [2] was 15 µM (≈ 2.94 µg/mL); with Escherichia coli [3], 27 µM (≈ 5.3 µg/mL); with Escherichia coli [4], > 100 µM; against Staphylococcus aureus it was > 100 µM.

Regarding `NC(=O)c1cnc(OC2CCCC2)nc1N`, the results for the IC50 (in test [1]; on DNA ligase 1) were 610 nM and > 55 µM, respectively. In addition, the MIC was 9.4 µM (≈ 2.09 µg/mL) against Escherichia coli [2], 100 µM (≈ 22.2 µg/mL) against Escherichia coli [3], > 100 µM against Escherichia coli [4] and > 100 µM with Staphylococcus aureus.

Take `Nc1nc(OCC2CCCC2)ncc1C(=O)NCCCN1CCCC1=O`: the IC50 in test [1] is > 55000 nM. Moreover, the MIC in the test with Escherichia coli [2], in the test with Escherichia coli [3], against Escherichia coli [4] and in the test on Staphylococcus aureus was > 100 µM each time.

Turning to `NC(=O)c1cnc(CCC2CCCC2)nc1N`, the IC50 in test [1] was > 55000 nM. Also, the MIC in the test with Escherichia coli [2], against Escherichia coli [3], against Escherichia coli [4] and against Staphylococcus aureus was > 100 µM each time.

`CC(C)Oc1nc(N)c(C(N)=O)c(OC2CCCCC2)n1`: the IC50 is 61 nM in test [1] and > 55 µM against DNA ligase 1. Also, the MIC against Escherichia coli [2] is 6.3 µM (≈ 1.85 µg/mL); in the test with Escherichia coli [3], > 100 µM; in the test with Escherichia coli [4], > 100 µM; against Staphylococcus aureus it was > 100 µM.

Take `NC(=O)c1cnc(OCCF)nc1N`: the IC50 in test [1] was 920 nM; on DNA ligase 1, > 55 µM. In addition, the MIC in the test on Escherichia coli [2] was 28 µM (≈ 5.6 µg/mL); in the test on Escherichia coli [3], 23 µM (≈ 4.6 µg/mL); in the test on Escherichia coli [4], > 100 µM; in the test with Staphylococcus aureus, > 100 µM.

`NC(=O)c1c(N)nc(OC2CCCC2)nc1O[C@H]1CCC[C@H]1O`: the results for the IC50 (in test [1]; against DNA ligase 1) were 120 nM and > 55 µM, respectively. Further, the MIC with Escherichia coli [2] was 9.4 µM (≈ 3.03 µg/mL); against Escherichia coli [3] it was > 100 µM; in the test with Escherichia coli [4], > 100 µM; with Staphylococcus aureus it was > 100 µM.

Regarding `NC(=O)c1c(N)nc(OC2CCCC2)nc1O[C@H]1CCCC[C@@H]1CO`, the IC50 was 14 nM in test [1] and > 55 µM against DNA ligase 1. Besides, the MIC against Escherichia coli [2] is 1.2 µM (≈ 0.421 µg/mL); against Escherichia coli [3] it was > 100 µM; in the test on Escherichia coli [4], > 100 µM; against Staphylococcus aureus it was 100 µM (≈ 35 µg/mL).

On to `Nc1nc(OCC2CCCC2)ncc1C(=O)NCC1CCCO1` (stereo not drawn), for which, in test [1], the IC50 is > 55000 nM. The MIC with Escherichia coli [2], against Escherichia coli [3], in the test with Escherichia coli [4] and in the test on Staphylococcus aureus was > 100 µM throughout.

As to `NC(=O)c1c(N)nc(OC2CCCC2)nc1Oc1cccc(CCC(=O)O)c1`, the half-maximal inhibitory concentration (IC50) in test [1] was 78 nM; on DNA ligase 1, > 55 µM. Besides, the MIC with Escherichia coli [2] is 1.2 µM (≈ 0.464 µg/mL); against Escherichia coli [3], > 100 µM; against Escherichia coli [4], > 100 µM; with Staphylococcus aureus, 83 µM (≈ 32.1 µg/mL).

Regarding `NC(=O)c1c(N)nc(OC2CCCC2)nc1O[C@H]1CCCC[C@@H]1O`, the IC50 is 46 nM in test [1] and > 55 µM against DNA ligase 1. Moreover, the MIC against Escherichia coli [2] was 1.6 µM (≈ 0.538 µg/mL); in the test on Escherichia coli [3] it was > 100 µM; with Escherichia coli [4], > 100 µM; in the test on Staphylococcus aureus, 45 µM (≈ 15.1 µg/mL).

On to `NC(=O)c1cnc(NC2CCCC2)nc1N`, for which the IC50 in test [1] was > 55000 nM. Also, the MIC against Escherichia coli [2], in the test on Escherichia coli [3], against Escherichia coli [4] and against Staphylococcus aureus was > 100 µM each time.

In test [1], `N=C(N)c1cnc(OC2CCCC2)nc1N` came in with an IC50 of 8100 nM. Also, the MIC against Escherichia coli [2] is 100 µM (≈ 22.1 µg/mL); against Escherichia coli [3], > 100 µM; in the test on Escherichia coli [4] it was > 100 µM; with Staphylococcus aureus, > 100 µM.

The values are drawn from ChEMBL document CHEMBL2029313, “Design, synthesis and biological evaluation of potent NAD+-dependent DNA ligase inhibitors as potential antibacterial agents. Part I: aminoalkoxypyrimidine carboxamides” (Bioorg Med Chem Lett, 2012).
